Series [1] has as its target T1, Calcineurin (GST-CN) (Homo sapiens, UniProt Q08209).
T1 construct: made in house; host or cells: E. coli BL21
Put plainly: Direct binding of FITC-labeled peptides to CN by fluorescence anisotropy/polarization. The procedure:
To facilitate concentration determination and binding analysis by fluorescence anisotropy (FA), a dipeptide Tyr-Lys was added to the C-terminus of ZIZIT (SEQ ID NO:1) and the lysine side chain was labeled with fluorescein isothiocyanate (FITC). The resulting peptide,
Fluorescence Polarization. Fluorescence polarization (FP) experiments were carried out to measure binding affinity in both direct and competitive binding experiments using GST-CN and peptides prepared as mentioned previously. For direct binding, 50 nM FITC-labeled peptide was prepared in PBS, pH 7.4 containing 5 mM DTT and 0.01% Triton-X100 and then added to GST-CN diluted in PBS containing 0.01% Triton-X100. Solutions were incubated for 1 h at RT with gentle mixing and then pipetted into black 384-well microplates. Fluorescence polarization was measured on a TECAN Infinite M1000 plate reader and titration curves were fitted using both KaelidaGraph v 3.6 and GraphPad PRISM to the equation:
[formula] • where FP is the measured fluorescence polarization, Amin is the minimum FP value, Amax is the maximum FP signal, Qb is the quantum yield of the bound fluorophore, Qf is the quantum yield of the free fluorophore, L is the ligand concentration, KD is the dissociation constant and x is the protein concentration.
(In general: In fluorescence polarisation assays a small probe gives low polarisation when free and higher when bound to something large.)

Series [2] deals with HeLa cells. Put plainly: Cytosolic delivery assay (NF-labeled peptides, flow cytometry). The following applies: 5 μM, 2 h, relative to CPP9 = 100%. The series is classed as cell-based. As for the experimental part:
The NF fluorescence intensity of the treated cells therefore reflects the amount of the peptide that has reached the cytosol and nucleus of the cells. […] Live-cell confocal microscopic analysis confirmed that CNI93 reached the interior of HeLa cells.
Cytosolic Delivery Assay. HeLa cells maintained in DMEM supplemented with 10% FBS and 1% penicillin/streptomycin were seeded into 12-well plates (1.5×10^5 cells per well) and incubated overnight at 37° C., 5% CO2. The following day, the cells were washed with DPBS and incubated with 5 μM NF-labeled peptides dissolved in DMEM containing 10% FBS, 1% penicllin/streptomycin for 2 h at 37° C. in the presence of 5% CO2. After that, the cells were washed with DPBS and harvested from the plate by treatment with 0.25% trypsin for 5 min. Cells were centrifuged at 300×RCF, washed twice with cold DPBS, and resuspended in cold DPBS for flow cytometry analysis on a BD LSR II flow cytometer followed by data analysis and gating using Flowjo. Calculation of cytosolic uptake efficiencies was carried out as previously described by Qian, Z., et al., Discovery and Mechanism of Highly Efficient Cyclic Cell-Penetrating Peptides. Biochemistry 2016, 55, 2601-2612.
For orientation: Flow cytometry measures light scatter and fluorescence of single cells or particles in a stream.

Series [3] relates to HeLa cells. Put plainly: MTT assay, HeLa. The series is classed as cell-based. The following applies: 72 h. As for the experimental part:
(§1) MTT Proliferation Assay. HeLa, Jurkat-Lucia, or H441 cells were seeded into a 96-well microplate (5000 cells per well) in full growth media and incubated at 37° C. overnight. A serial dilution of each compound was prepared in DPBS and then added to each well. The treated cells were incubated at 37° C. with 5% CO2 for 72 h. Following compound treatment, 10 μL of MTT stock solution was added to each well. After an additional 4 h at 37° C., 100 μL of SDS-HCl solubilizing solution was added to each well and the plate was returned to the incubator overnight at 37° C. A Tecan Infinite M1000 Pro microplate reader was used the following morning to measure the absorbance of the formazan product at 565 nm.
Potential cytotoxicity of CNI101 (SEQ ID NO: 206) and CNI103 (SEQ ID NO: 208) was tested on HeLa cells by the MTT proliferation assay. HeLa cells were seeded into a 96-well microplate (5000 cells per well) in full growth media and incubated at 37° C. overnight. A serial dilution of each inhibitor was prepared in DPBS and then added to each well. The treated cells were incubated at 37° C. with 5% CO2 for 72 h. Following compound treatment, 10 μL of MTT stock solution was added to each well. After an additional 4 h at 37° C., 100 μL of SDS-HCl solubilizing solution was added to each well and the plate was returned to the incubator overnight at 37° C. A Tecan Infinite M1000 Pro microplate reader was used the following morning to measure the absorbance of the formazan product at 565 nm.
A general note: Formazan colour is commonly taken as a measure of viable cells.

In series [4] the test system is H441 (lung cancer) cells. As to the kind of experiment: MTT assay, H441. It is filed as cell-based. The following applies: 72 h. As for the experimental part:
as §1

In series [5] the test system is NFATc3 nuclear translocation. As to the kind of experiment: LPS-induced NFATc3 nuclear translocation in macrophages (immunofluorescence). It is filed as cell-based, mouse. The following applies: 1 μM peptide pretreatment, LPS stimulation. The procedure: Endotoxin lipopolysaccharide (LPS) was previously shown to induce NFATc3 translocation from the cytoplasm into the nucleus and upregulation of NFATc3 target genes in macrophages.
Immunofluorescence. Mouse BMDM were pretreated with 1 μM of control CPP9 (SEQ ID NO: 76)-VAVAA (SEQ ID NO: 224)-Biotin or CNI93-Biotin peptides for 5 min and stimulated with PBS or LPS (100 ng/mL) for 1 h. Treated cells were washed, fixed in 4% paraformaldehyde and incubated sequentially with anti-rabbit NFATc3, Anti-rabbit Alexa Fluor™ 488 Conjugate and Alexa Fluor™ 594 Streptavidin. Cells were washed three times in 1×PBS after incubation with each antibody.

Series [6] relates to LPS-induced TNFα production in lung macrophages. Put plainly: LPS-induced TNFα secretion by lung macrophages (ELISA). It is filed as cell-based, mouse. From the text:
Cell supernatants were collected and analyzed for TNFα levels by R&D systems TNFα ELISA kit.

Series [7] can be described thus: Maximum tolerated dose (body weight over 10 days). It is filed as in vivo.
Series [8] deals with LPS-induced TNFα and IL-6 secretion, mouse total lung macrophages. As to the kind of experiment: Inhibition of TNFα and IL-6 secretion by macrophage. It is filed as cell-based. The following applies: 100 nM, 1 μM, or 10 μM for 2 h, then LPS 6 h. The procedure: Mouse total lung macrophages were obtained from 5 mice and pooled. Macrophages were pretreated with 100 nM, 1 μM, or 10 μM inhibitor for 2 h and stimulated with LPS ([…]) or PBS for 6 h. Cell supernatants were collected and analyzed for TNFα levels (FIG. 20A) or IL-6 levels (FIG. 20B) by R&D Systems TNFα ELISA kit and R&D Systems IL-6 ELISA kit.

One molecule from patent US12329799B2, “Peptidyl inhibitors of calcineurin-NFAT interaction” (Ohio State Innovation Foundation, priority 2018, dated 2025) can be followed below.

Each structure is given as a SMILES string. Positions of bridges follow the written chain, without caps; N, C: chain ends. Non-standard residues stand in square brackets, D forms with d. Residues, ends and D or L forms follow the SMILES beside them. Chains are numbered I, II in the order given. *: point of attachment. Benzoyl(2,3-Cl2) = O=C(c1cccc(Cl)c1Cl)*; 2Nal = N[C@@H](Cc1ccc2ccccc2c1)C(=O)O; Tle = CC(C)(C)[C@H](N)C(=O)O; βAla = NCCC(=O)O

T1 sequence (Q08209 2-347 limits assumed): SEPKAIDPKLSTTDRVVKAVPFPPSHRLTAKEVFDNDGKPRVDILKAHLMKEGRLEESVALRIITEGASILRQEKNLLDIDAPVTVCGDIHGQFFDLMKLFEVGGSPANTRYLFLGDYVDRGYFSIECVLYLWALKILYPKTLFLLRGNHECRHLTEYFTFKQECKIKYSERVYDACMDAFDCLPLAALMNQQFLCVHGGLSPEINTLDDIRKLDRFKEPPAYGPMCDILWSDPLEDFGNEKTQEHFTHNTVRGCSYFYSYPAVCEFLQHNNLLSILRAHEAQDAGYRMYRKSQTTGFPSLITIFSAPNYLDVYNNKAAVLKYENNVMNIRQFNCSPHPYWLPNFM

`CC[C@H](C)[C@H](NC(=O)[C@@H](NC(=O)c1cccc(Cl)c1Cl)C(C)(C)C)C(=O)N[C@H](C(=O)N[C@H](C(=O)N[C@H](C(=O)N[C@@H](CCC(N)=O)C(=O)N[C@@H](Cc1c[nH]cn1)C(=O)N[C@H](CC(C)C)C(=O)N[C@@H](CO)C(=O)NCCC(=O)N[C@@H](CCCCNC(=O)CC[C@@H]1NC(=O)[C@@H](CCCNC(=N)N)NC(=O)[C@H](CCCNC(=N)N)NC(=O)[C@@H](CCCNC(=N)N)NC(=O)[C@H](CCCNC(=N)N)NC(=O)[C@H](Cc2ccc3ccccc3c2)NC(=O)[C@@H](Cc2ccccc2)NC1=O)C(N)=O)[C@@H](C)O)[C@@H](C)CC)C(C)(C)C` [CNI93] (I: {Benzoyl(2,3-Cl2)}-[Tle]I[Tle]ITQH[dL]S[βAla]K-NH2 / II: cyclo([2Nal]R[dR]R[dR]E[dF]); amide I:11-II:6 (inferred); ring closure inferred): in series [1], the “lower CN-binding affinity relative to peptide 14” value turned out to be 8 fold. The “relative cytosolic delivery efficiency” value in series [2] came out at 109%. The cytotoxicity entry in series [3] (25 μM) was “No significant cytotoxicity”; in series [4] (H441, 25 μM), “No significant cytotoxicity”. Moreover, the cell viability entry in series [3] (50 μM) is on record as “Reduction in cell viability”; in series [4] (H441, 50 μM), “Reduction in cell viability”. In addition, the “LPS-induced nuclear translocation of NFATc3” value in series [5] is “completely blocked”. In addition, in series [6] (dose-dependent, 100 nM-10 μM, LPS 100 ng/mL, 16 h), the “decrease of LPS-induced TNFα production” value was 24-59%. In addition, the “potency as immunosuppressant relative to CsA” value in series [6] (ex vivo assay) is roughly 10 fold. For the same molecule, the body weight entry in series [7] (intranasal 10 mg/kg) and in series [7] (intranasal 50 mg/kg) was “steady increase in body weight similar to healthy controls” each time. Further, the “survival and signs of distress” value in series [7] (intranasal 10 mg/kg) is “survived and showed no visible sign of distress”; in series [7] (intranasal 50 mg/kg), “survived and showed no visible sign of distress”. The “secreted amounts of TNFα and IL6” value in series [8] was “dose-dependently reduced”.
